Source: patent US20250230129A1, “POLYAMIDE COMPOUNDS, METHOD FOR PREPARING SAME, AND MEDICAL USE THEREOF” (priority 2022, published 2025)
Where two headings read alike, the source gives them in different places. Square brackets hold non-standard residues; d marks the D form. Peptide text beside a SMILES is read from it. * marks the point of attachment. Gly(N-(2R-Ph-propyl)) = C[C@@H](CNCC(=O)O)c1ccccc1; Piperidin1yl(4-NH2,4-COOH) = NC1(C(=O)O)CCN(*)CC1; dPhLac = O=C(O)[C@H](O)Cc1ccccc1; X4 = COC(=O)NC1CCN(*)CC1

Columns and labels:
ICR mice [1] = experiment: Acetic acid writhing test in mice; format: in vivo; conditions: Mus musculus; single intravenous injection, male ICR mice; read-out: Acetic acid writhing in mice ED50
[2] = Autonomous activity test in mice; conditions: male, ICR, mouse, in vivo, iv
ICR mice [3] = experiment: Sedation safety window; conditions: sedation side effect ED50 (autonomic activity test)/efficacy ED50 (acetic acid writhing test)
δ receptor = δ receptor (Homo sapiens (Human), UniProt P41143); experiment: Competitive delta receptor binding assay (3H-DADLE)
[4] = molecular target: κ-opioid receptor (Kappa) (Homo sapiens (Human), UniProt P41145); experiment: In vitro functional assay, HTRF cAMP-Gi in CHO-K1-OPRK1 cells; format: cell-based
μ receptor = μ receptor (Homo sapiens (Human), UniProt P35372); experiment: μ receptor affinity assay (3H-DAMGO); format: binding
κ receptor = κ receptor (Homo sapiens (Human), UniProt P41145); experiment: Competitive Kappa receptor binding assay (3H-U69593)
[5] = PK and blood-brain barrier permeability in mice; format: in vivo; conditions: male ICR mice, intravenous 1 mg/kg; for B/P (brain-to-blood ratio): blood and brain 5 min after administration; for AUC(0-inf) / Vd / clearance / half-life / Cmax: mouse, plasma; for half-life: read-out: t½ (converted)
Method: The compounds of the present disclosure were investigated for pharmacokinetic characteristics and blood-brain barrier permeability in mice.
Healthy male ICR mice were randomly grouped, 6 animals per group. For each test compound, 3 groups of animals were used. The first group of animals was used for collecting blood and brain 5 min after the administration, and the second group of animals and the third group of animals were used for cross blood collection at subsequent time points; each test compound was intravenously administered (1 mg/kg) to corresponding groups of mice, and blood sampling via submaxillary veins of the mice was carried out at different time points. Drug contents in plasma and brain tissues at different time points were measured by an LC-MS/MS method, the brain-to-blood ratio B/P was calculated by using EXCEL software, and pharmacokinetic parameters were calculated by using DAS3.0 software.

[6] = CHO-K1-delta membranes, 3H-DADLE 4 nM, read-out: δ receptor Ki
[7] = CHO-K1-OPRK1 cells, cAMP, 1 μM Forskolin, read-out: In vitro agonistic effects on k-opioid receptors EC50
[8] = CHO-K1-μ membranes, 3H-DAMGO 2 nM, read-out: μ receptor Ki
[9] = CHO-K1-Kappa membranes, 3H-U69593 2 nM, read-out: κ receptor Ki
[10] = read-out: In vitro agonistic effects on k-opioid receptors EC50

Row | Compound | Ki (δ receptor) | EC50 [4] | Ki (μ receptor) | Ki (κ receptor) | other results
1 | CC(C)C[C@@H](NC(=O)[C@@H](Cc1ccccc1)NC(=O)CNC[C@H](C)c1ccccc1)C(=O)N[C@H](CCCCN)C(=O)N1CCC(N)(C(=O)O)CC1 [Comparative Example 1B, reference compound] (H-[Gly(N-(2R-Ph-propyl))][dF][dL][dK]-{Piperidin1yl(4-NH2,4-COOH)}) | – | – | – | – | ED50 (ICR mice [1]): 0.25 mg/kg; ED50 at 30 min [2]: 0.59 mg/kg; Safety window (ICR mice [3]): 2.36
2 | CC(C)C[C@@H](NC(=O)[C@@H](Cc1ccccc1)NC(=O)C[C@@H](N)c1ccccc1)C(=O)N[C@H](CCCCN)C(=O)N1CCC(N)(C(=O)O)CC1 [Compound 4-0, 4-amino-1-[(2R)-6-amino-2-[(2R)-2-[(2R)-2-((3R)-3-amino-3-phenylpropionylamino)-3-phenylpropionylamino]-4-methylpentanoylamino]hexanoyl]piperidine-4-carboxylic acid] | > 1000 nM | 3.62 nM | > 1000 nM | 2.8 nM | ED50 (ICR mice [1]): 1.14 mg/kg; ED50 at 30 min [2]: 7.34 mg/kg; Safety window (ICR mice [3]): 6.44
3 | CC(C)C[C@@H](NC(=O)[C@@H](Cc1ccccc1)NC(=O)N(C)C(CN)c1ccccc1)C(=O)N[C@H](CCCCN)C(=O)N1CCS(=N)(=O)CC1 (stereo partly shown) [Compound 10] | > 1000 nM | 1.1 nM | > 1000 nM | 0.86 nM | B/P (brain-to-blood ratio) [5]: 0.007; AUC(0-inf) [5]: 4.01 µg·h/mL; Vd [5]: 0.29 L/kg; clearance [5]: 0.25 L/h/kg; half-life [5]: 49.2 min; Cmax [5]: 3.22 µg/mL
4 | COC(=O)NC1CCN(C(=O)[C@@H](CCCCN)NC(=O)[C@@H](CC(C)C)NC(=O)[C@@H](Cc2ccccc2)NC(=O)[C@H](O)Cc2ccccc2)CC1 [Compound 11] (H-[dPhLac][dF][dL][dK]-X4) | > 1000 nM | 5.1 nM | > 1000 nM | 0.94 nM | ED50 (ICR mice [1]): 1.82 mg/kg; ED50 at 30 min [2]: 9.6 mg/kg; Safety window (ICR mice [3]): 5.27
5 | COC(=O)C1(N)CCN(C(=O)[C@@H](CCCCN)NC(=O)[C@@H](CC(C)C)NC(=O)[C@@H](Cc2ccccc2)NC(=O)N(CCN)Cc2ccccc2)CC1 [Compound 13-2, methyl 4-amino-1-[(2R)-6-amino-2-[(2R)-2-[(2R)-2-{[2-aminoethyl(benzyl)carbamoyl]amino}-3-phenylpropionylamino]-4-methylpentanoylamino]hexanoyl]piperidine-4-carboxylate] | > 1000 nM | 0.13 nM | > 1000 nM | 0.13 nM | ED50 (ICR mice [1]): 0.17 mg/kg; B/P (brain-to-blood ratio) [5]: BQL**; AUC(0-inf) [5]: 1.69 µg·h/mL; Vd [5]: 0.63 L/kg; clearance [5]: 0.6 L/h/kg; half-life [5]: 43.2 min; Cmax [5]: 2.93 µg/mL; ED50 at 30 min [2]: 2.75 mg/kg; Safety window (ICR mice [3]): 16.18
6 | CC(C)C[C@@H](NC(=O)[C@@H](Cc1ccccc1)NC(=O)N(CCN)Cc1ccccc1)C(=O)N[C@H](CCCCN)C(=O)N1CCS(=O)(=O)CC1 [Compound 21] | > 1000 nM | 0.68 nM | > 1000 nM | 0.33 nM | ED50 (ICR mice [1]): 0.5 mg/kg; B/P (brain-to-blood ratio) [5]: 0.010; AUC(0-inf) [5]: 2.67 µg·h/mL; Vd [5]: 0.63 L/kg; clearance [5]: 0.38 L/h/kg; half-life [5]: 69 min; Cmax [5]: 3.46 µg/mL; ED50 at 30 min [2]: 1.42 mg/kg; Safety window (ICR mice [3]): 2.82
7 | CC(C)C[C@@H](NC(=O)[C@@H](Cc1ccccc1)NC(=O)N(CCN)Cc1ccccc1)C(=O)N[C@H](CCCCN)C(=O)N1CCC2(CC1)OC(=O)Nc1ncccc12 [Compound 22] | – | – | – | – | Ki (δ receptor; [6]): > 1000 nM; EC50 [4, 7]: 0.36 nM; Ki (μ receptor; [8]): > 1000 nM; Ki (κ receptor; [9]): 0.35 nM
8 | CC(C)C[C@@H](NC(=O)[C@@H](Cc1ccccc1)NC(=O)N(CCN)Cc1ccccc1)C(=O)N[C@H](CCCCN)C(=O)N1CCC(NC(=O)OC2CCOCC2)CC1 [Compound 24] | > 1000 nM | 0.27 nM | > 1000 nM | 0.36 nM | –
9 | CNS(=O)(=O)NC1CCN(C(=O)[C@@H](CCCCN)NC(=O)[C@@H](CC(C)C)NC(=O)[C@@H](Cc2ccccc2)NC(=O)N(CCN)Cc2ccccc2)CC1 [Compound 26] | – | – | – | – | Ki (δ receptor; [6]): > 1000 nM; EC50 [4, 7]: 0.25 nM; Ki (μ receptor; [8]): > 1000 nM; Ki (κ receptor; [9]): 0.31 nM
10 | CC(C)C[C@@H](NC(=O)[C@@H](Cc1ccccc1)NC(=O)N(C)C(CN)c1ccccc1)C(=O)N[C@H](CCCCN)C(=O)N1CCC2(CC1)CNC(=O)c1ncccc12 (stereo partly shown) [Compound 32] | > 1000 nM | 0.65 nM | > 1000 nM | 0.58 nM | –
11 | CC(C)C[C@@H](NC(=O)[C@@H](Cc1ccccc1)NC(=O)N(C)C(CN)c1ccccc1)C(=O)N[C@H](CCCCN)C(=O)N1CCC(NC(=O)OC2CCOCC2)CC1 (stereo partly shown) [Compound 33] | > 1000 nM | 0.81 nM | > 1000 nM | 0.56 nM | –
12 | CC(C)C[C@@H](NC(=O)[C@@H](Cc1ccccc1)NC(=O)N(CCN)Cc1ccccc1)C(=O)N[C@H](CCCCN)C(=O)N1CCC(F)(C(=O)O)CC1 [Compound 34] | > 1000 nM | 0.71 nM | > 1000 nM | 0.6 nM | –
13 | CC(C)C[C@@H](NC(=O)[C@@H](Cc1ccccc1)NC(=O)N(CCN)Cc1ccccc1)C(=O)N[C@H](CCCCN)C(=O)N1CCC(C#N)CC1 [Compound 35] | > 1000 nM | 0.17 nM | > 1000 nM | 0.18 nM | –
14 | CC(C)C[C@@H](NC(=O)[C@@H](Cc1ccccc1)NC(=O)N(C)C(CN)c1ccccc1)C(=O)N[C@H](CCCCN)C(=O)N1CCS(=O)(=O)CC1 (stereo partly shown) [Compound 36] | > 1000 nM | 0.35 nM | > 1000 nM | 0.98 nM | –
15 | CC(C)C[C@@H](NC(=O)[C@@H](Cc1ccccc1)NC(=O)N(C)C(CN)c1ccccc1)C(=O)N[C@H](CCCCN)C(=O)N1CCOCC1 (stereo partly shown) [Compound 37] | > 1000 nM | 0.39 nM | > 1000 nM | 0.41 nM | –
16 | CC(C)C[C@@H](NC(=O)[C@@H](Cc1ccccc1)NC(=O)N(C)C(CN)c1ccccc1)C(=O)N[C@H](CCCCN)C(=O)N1CCNCC1 (stereo partly shown) [Compound 38] | > 1000 nM | 0.54 nM | > 1000 nM | 0.17 nM | –
17 | CC(C)C[C@@H](NC(=O)[C@@H](Cc1ccccc1)NC(=O)N(CCN)Cc1ccccc1)C(=O)N[C@H](CCCCN)C(=O)N1CCOCC1 [Compound 39] | > 1000 nM | 0.35 nM | > 1000 nM | 0.27 nM | –
18 | CC(C)C[C@@H](NC(=O)[C@@H](Cc1ccccc1)NC(=O)N(CCN)Cc1ccccc1)C(=O)N[C@H](CCCCN)C(=O)N1CCNCC1 [Compound 40] | > 1000 nM | 0.13 nM | > 1000 nM | 0.58 nM | –
19 | COC(=O)NC1CCN(C(=O)[C@@H](C)NC(=O)[C@@H](CC(C)C)NC(=O)[C@@H](Cc2ccccc2)NC(=O)N(CCN)Cc2ccccc2)CC1 [Compound 42] | > 1000 nM | 0.46 nM | > 1000 nM | 0.47 nM | –
20 | CC(=O)N(CCCN)C1CCN(C(=O)[C@@H](C)CC(=O)[C@@H](CC(C)C)NC(=O)[C@H](CC(=O)N(CCN)Cc2ccccc2)Cc2ccccc2)CC1 [Compound 44] | – | – | – | – | Ki (δ receptor; read-out: δ receptor Ki): > 1000 nM; EC50 [4, 10]: 0.09 nM; Ki (μ receptor; read-out: μ receptor Ki): > 1000 nM; Ki (κ receptor; read-out: κ receptor Ki): 0.55 nM
21 | CC(=O)NC1CCN(C(=O)[C@@H](CCCCN)NC(=O)[C@@H](CC(C)C)NC(=O)[C@@H](Cc2ccccc2)NC(=O)N(CCN)Cc2ccccc2)CC1 [Compound 45] | > 1000 nM | 0.16 nM | > 1000 nM | 0.52 nM | –
22 | COC(=O)N1CCN(C(=O)[C@@H](CCCCN)NC(=O)[C@@H](CC(C)C)NC(=O)[C@@H](Cc2ccccc2)NC(=O)N(CCN)Cc2ccccc2)CC1 [Compound 46] | > 1000 nM | 0.22 nM | > 1000 nM | 0.29 nM | –
23 | CC(=O)N1CCN(C(=O)[C@@H](CCCCN)NC(=O)[C@@H](CC(C)C)NC(=O)[C@@H](Cc2ccccc2)NC(=O)N(CCN)Cc2ccccc2)CC1 [Compound 47] | > 1000 nM | 0.24 nM | > 1000 nM | 0.49 nM | –
24 | CC(C)C[C@@H](NC(=O)[C@@H](Cc1ccccc1)NC(=O)N(CCN)CC1CC1)C(=O)N[C@H](CCCCN)C(=O)N1CCC(N)(C(=O)O)CC1 [Compound 48] | > 1000 nM | 12 nM | > 1000 nM | 3.79 nM | –
25 | CC(C)C[C@@H](NC(=O)[C@@H](Cc1ccccc1)NC(=O)N(CCN)Cc1ccc(F)cc1)C(=O)C[C@H](CCCCN)C(=O)N1CCC(N)(C(=O)O)CC1 [Compound 50] | – | – | – | – | Ki (δ receptor; read-out: δ receptor Ki): > 1000 nM; EC50 [4, 10]: 0.43 nM; Ki (μ receptor; read-out: μ receptor Ki): > 1000 nM; Ki (κ receptor; read-out: κ receptor Ki): 0.27 nM
26 | (2R)-2-[(2R)-2-{[(2-amino-1-phenylethyl)(methyl)carbamoyl)amino}-3-phenylpropionylamino]-N-[(2R)-6-amino-1-{4-[(methylcarbamoyl)amino]piperidin-1-yl}-1-oxohexyl-2-yl]-4-methylpentanamide [Compound 8] | – | – | – | – | Ki (δ receptor; read-out: δ receptor Ki): > 1000 nM; EC50 [4, 10]: 0.9 nM; Ki (μ receptor; read-out: μ receptor Ki): > 1000 nM; Ki (κ receptor; read-out: κ receptor Ki): 0.09 nM
